Legend:
[1] = target: Casein kinase I isoform epsilon (Homo sapiens) (UniProt P49674); conditions: Compound concentration 1000.0 nM
[2] = target: Beta-3 adrenergic receptor (Homo sapiens) (UniProt P13945); conditions: Compound concentration 10.0 uM
[3] = target: Serine/threonine-protein kinase 17B (Homo sapiens) (UniProt O94768); conditions: Compound concentration 1000.0 nM
[4] = target: Serine/threonine-protein kinase pim-2 (Homo sapiens) (UniProt Q9P1W9); conditions: Compound concentration 1000.0 nM
[5] = target: 5'-AMP-activated protein kinase catalytic subunit alpha-2 (Homo sapiens) (UniProt P54646); conditions: Compound concentration 1000.0 nM
[6] = system: Phosphatidylinositol 4,5-bisphosphate 3-kinase catalytic subunit alpha isoform (Homo sapiens), P42336 [M1043I]; conditions: Compound concentration 1000.0 nM
[7] = target: T1, Mitogen-activated protein kinase 12 (Homo sapiens) (UniProt P53778); conditions: Compound concentration 1000.0 nM
T1 sequence (whole entry): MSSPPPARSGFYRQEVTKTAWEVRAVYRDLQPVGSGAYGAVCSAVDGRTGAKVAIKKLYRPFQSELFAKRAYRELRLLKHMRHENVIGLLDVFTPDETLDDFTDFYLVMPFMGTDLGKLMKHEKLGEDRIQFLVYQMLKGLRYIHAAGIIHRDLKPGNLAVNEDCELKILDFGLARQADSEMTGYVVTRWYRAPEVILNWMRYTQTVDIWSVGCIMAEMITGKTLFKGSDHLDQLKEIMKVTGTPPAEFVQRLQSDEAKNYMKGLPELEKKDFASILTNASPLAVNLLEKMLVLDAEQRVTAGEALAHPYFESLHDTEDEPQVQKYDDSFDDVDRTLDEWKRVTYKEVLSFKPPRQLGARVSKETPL

[8] = target: Casein kinase I isoform delta (Homo sapiens) (UniProt P48730); conditions: Compound concentration 1000.0 nM
[9] = target: Vascular endothelial growth factor receptor 2 (Homo sapiens) (UniProt P35968); conditions: Compound concentration 1000.0 nM
[10] = target: Mitogen-activated protein kinase 6 (Homo sapiens) (UniProt Q16659); conditions: Compound concentration 1000.0 nM
[11] = target: Tyrosine-protein kinase BTK (Homo sapiens) (UniProt Q06187); conditions: Compound concentration 1000.0 nM
[12] = target: Atypical kinase COQ8A, mitochondrial (Homo sapiens) (UniProt Q8NI60); conditions: Compound concentration 1000.0 nM
[13] = target: Phosphatidylinositol 4,5-bisphosphate 3-kinase catalytic subunit delta isoform (Homo sapiens) (UniProt O00329); conditions: Compound concentration 1000.0 nM
[14] = target: T2, Tyrosine-protein kinase Mer (Homo sapiens) (UniProt Q12866); conditions: Compound concentration 1000.0 nM
T2 sequence (whole entry): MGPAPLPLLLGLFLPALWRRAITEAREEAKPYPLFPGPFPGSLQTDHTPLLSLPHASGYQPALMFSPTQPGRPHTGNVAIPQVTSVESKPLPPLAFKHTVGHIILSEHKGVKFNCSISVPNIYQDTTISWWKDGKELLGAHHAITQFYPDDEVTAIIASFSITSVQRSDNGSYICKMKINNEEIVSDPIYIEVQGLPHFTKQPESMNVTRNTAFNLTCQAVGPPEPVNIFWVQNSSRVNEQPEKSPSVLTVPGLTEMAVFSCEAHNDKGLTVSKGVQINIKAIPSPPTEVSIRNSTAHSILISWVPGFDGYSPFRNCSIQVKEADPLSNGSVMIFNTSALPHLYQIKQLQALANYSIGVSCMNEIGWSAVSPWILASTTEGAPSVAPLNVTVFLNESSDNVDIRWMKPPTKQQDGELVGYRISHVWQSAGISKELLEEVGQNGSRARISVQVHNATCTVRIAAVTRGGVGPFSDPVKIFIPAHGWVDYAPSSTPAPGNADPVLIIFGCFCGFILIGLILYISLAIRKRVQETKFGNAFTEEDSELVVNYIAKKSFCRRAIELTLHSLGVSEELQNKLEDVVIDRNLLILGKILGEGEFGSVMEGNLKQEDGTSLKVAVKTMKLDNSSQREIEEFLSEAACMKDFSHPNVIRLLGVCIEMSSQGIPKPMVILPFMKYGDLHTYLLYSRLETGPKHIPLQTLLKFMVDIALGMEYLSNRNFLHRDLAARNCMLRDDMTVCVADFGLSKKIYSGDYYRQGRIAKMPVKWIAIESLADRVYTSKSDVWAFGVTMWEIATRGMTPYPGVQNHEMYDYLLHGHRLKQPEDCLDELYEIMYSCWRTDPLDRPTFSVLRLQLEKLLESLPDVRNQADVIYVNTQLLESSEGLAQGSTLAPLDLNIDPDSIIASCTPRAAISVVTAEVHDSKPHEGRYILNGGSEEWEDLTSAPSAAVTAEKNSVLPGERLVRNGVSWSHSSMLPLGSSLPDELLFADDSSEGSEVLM

[15] = target: Homeodomain-interacting protein kinase 2 (Homo sapiens) (UniProt Q9H2X6); conditions: Compound concentration 1000.0 nM
[16] = target: Dual specificity mitogen-activated protein kinase kinase 1 (Homo sapiens) (UniProt Q02750); conditions: Compound concentration 1000.0 nM
[17] = system: Receptor-type tyrosine-protein kinase FLT3 (Homo sapiens), P36888 [D835H]; conditions: Compound concentration 1000.0 nM
[18] = target: Histamine H1 receptor (Homo sapiens) (UniProt P35367); conditions: Compound concentration 10.0 uM

Chain of Dual specificity mitogen-activated protein kinase kinase 1 (Homo sapiens) (Q02750 whole entry): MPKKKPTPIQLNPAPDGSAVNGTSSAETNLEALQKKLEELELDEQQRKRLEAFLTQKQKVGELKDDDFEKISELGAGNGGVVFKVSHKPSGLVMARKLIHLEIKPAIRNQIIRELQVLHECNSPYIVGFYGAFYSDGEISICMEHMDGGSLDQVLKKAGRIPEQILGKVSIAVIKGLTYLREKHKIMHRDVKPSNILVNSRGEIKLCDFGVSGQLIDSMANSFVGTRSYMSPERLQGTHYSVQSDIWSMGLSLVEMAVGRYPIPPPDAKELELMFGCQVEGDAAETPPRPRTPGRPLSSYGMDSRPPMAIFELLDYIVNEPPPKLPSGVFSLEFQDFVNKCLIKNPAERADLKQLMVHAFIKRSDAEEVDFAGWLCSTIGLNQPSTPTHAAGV
Chain of Casein kinase I isoform delta (Homo sapiens) (P48730 whole entry, looked up, canonical isoform): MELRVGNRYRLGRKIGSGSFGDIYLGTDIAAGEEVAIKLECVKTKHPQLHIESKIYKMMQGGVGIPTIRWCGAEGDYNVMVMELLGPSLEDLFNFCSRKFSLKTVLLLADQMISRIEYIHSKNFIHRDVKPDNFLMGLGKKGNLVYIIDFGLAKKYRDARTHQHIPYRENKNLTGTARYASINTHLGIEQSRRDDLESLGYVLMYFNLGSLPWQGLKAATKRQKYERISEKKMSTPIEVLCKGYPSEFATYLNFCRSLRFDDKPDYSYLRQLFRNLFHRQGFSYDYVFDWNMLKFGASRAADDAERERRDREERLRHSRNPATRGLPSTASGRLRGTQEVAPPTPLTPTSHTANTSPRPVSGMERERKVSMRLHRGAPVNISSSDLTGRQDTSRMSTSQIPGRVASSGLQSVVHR
Chain of Phosphatidylinositol 4,5-bisphosphate 3-kinase catalytic subunit alpha isoform (Homo sapiens), P42336 [M1043I] (P42336 whole entry M1043I, canonical isoform): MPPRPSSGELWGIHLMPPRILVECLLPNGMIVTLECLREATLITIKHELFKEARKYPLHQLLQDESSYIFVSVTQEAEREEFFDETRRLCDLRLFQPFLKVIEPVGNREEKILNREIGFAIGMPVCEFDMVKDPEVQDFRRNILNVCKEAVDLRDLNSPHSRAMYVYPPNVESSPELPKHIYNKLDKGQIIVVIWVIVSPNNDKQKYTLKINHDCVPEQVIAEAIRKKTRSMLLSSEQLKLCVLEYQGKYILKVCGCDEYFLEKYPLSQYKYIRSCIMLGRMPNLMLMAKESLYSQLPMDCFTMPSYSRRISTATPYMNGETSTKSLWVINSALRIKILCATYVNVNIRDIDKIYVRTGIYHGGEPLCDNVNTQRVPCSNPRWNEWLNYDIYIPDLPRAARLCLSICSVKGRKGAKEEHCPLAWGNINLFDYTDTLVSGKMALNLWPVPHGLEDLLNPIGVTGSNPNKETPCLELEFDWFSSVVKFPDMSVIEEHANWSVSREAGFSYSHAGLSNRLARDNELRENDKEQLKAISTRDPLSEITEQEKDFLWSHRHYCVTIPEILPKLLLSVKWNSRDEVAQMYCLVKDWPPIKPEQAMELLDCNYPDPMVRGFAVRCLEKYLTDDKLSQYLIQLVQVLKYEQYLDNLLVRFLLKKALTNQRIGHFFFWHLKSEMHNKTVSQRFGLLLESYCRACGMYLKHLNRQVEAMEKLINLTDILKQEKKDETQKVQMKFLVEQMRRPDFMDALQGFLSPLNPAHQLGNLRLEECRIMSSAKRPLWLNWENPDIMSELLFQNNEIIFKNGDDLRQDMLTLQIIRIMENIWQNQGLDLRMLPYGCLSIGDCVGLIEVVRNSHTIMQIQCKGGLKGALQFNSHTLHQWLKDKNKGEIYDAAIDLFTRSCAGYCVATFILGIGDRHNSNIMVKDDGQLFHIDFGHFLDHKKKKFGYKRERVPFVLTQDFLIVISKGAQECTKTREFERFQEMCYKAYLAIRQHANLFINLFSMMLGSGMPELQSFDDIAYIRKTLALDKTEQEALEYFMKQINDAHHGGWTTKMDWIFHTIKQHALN
Chain of Homeodomain-interacting protein kinase 2 (Homo sapiens) (Q9H2X6 whole entry, looked up): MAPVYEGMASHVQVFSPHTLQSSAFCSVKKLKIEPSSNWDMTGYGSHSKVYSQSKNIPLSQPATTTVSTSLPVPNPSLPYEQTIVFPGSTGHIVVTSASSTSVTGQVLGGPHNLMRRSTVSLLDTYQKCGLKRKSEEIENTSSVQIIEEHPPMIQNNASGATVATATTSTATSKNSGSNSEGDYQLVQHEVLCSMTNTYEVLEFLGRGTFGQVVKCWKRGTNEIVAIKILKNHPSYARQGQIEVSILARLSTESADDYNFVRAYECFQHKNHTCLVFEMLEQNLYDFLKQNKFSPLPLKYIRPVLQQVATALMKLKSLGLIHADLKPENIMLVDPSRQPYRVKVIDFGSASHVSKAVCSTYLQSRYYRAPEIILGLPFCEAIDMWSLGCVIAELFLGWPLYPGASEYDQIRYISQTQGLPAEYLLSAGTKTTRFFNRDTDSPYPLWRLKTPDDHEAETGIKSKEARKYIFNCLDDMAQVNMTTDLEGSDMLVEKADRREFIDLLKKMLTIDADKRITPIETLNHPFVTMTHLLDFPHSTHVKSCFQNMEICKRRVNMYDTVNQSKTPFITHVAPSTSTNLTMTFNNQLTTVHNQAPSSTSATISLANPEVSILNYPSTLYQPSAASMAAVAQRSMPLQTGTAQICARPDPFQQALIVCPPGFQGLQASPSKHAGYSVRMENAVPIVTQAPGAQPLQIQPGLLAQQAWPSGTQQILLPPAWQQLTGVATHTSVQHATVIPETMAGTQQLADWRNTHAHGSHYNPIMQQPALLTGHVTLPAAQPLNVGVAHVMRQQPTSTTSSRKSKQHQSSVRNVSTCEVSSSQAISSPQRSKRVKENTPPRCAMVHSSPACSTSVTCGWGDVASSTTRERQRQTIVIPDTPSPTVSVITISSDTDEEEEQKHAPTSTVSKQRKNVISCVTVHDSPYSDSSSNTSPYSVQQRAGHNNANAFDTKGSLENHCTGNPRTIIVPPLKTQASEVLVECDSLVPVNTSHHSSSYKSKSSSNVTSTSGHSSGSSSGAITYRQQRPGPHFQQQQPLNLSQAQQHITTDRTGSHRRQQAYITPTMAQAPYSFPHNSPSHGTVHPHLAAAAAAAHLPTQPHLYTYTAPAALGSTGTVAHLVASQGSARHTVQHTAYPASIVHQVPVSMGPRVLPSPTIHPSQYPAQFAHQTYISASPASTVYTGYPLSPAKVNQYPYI
Chain of Beta-3 adrenergic receptor (Homo sapiens) (P13945 whole entry, looked up): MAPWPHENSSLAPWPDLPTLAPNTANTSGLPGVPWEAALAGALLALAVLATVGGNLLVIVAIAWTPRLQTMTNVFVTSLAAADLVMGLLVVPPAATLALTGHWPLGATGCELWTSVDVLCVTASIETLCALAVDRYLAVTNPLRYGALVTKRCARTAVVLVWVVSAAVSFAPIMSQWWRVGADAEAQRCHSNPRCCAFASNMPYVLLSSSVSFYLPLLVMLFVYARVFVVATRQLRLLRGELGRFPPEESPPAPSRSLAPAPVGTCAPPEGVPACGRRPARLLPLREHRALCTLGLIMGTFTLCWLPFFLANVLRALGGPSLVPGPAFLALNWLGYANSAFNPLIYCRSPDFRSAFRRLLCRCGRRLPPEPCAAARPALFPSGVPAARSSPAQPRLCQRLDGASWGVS
Chain of Serine/threonine-protein kinase 17B (Homo sapiens) (O94768 whole entry): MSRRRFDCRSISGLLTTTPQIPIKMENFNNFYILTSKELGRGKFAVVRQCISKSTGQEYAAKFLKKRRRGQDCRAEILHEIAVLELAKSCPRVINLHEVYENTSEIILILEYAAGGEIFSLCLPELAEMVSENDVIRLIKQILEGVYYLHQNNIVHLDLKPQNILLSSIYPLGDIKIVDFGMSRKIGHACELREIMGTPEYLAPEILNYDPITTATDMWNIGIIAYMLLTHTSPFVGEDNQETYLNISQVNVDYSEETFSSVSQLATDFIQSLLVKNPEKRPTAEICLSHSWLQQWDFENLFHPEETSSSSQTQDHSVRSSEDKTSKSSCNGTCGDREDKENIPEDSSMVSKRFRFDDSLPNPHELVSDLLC
Chain of Mitogen-activated protein kinase 6 (Homo sapiens) (Q16659 whole entry): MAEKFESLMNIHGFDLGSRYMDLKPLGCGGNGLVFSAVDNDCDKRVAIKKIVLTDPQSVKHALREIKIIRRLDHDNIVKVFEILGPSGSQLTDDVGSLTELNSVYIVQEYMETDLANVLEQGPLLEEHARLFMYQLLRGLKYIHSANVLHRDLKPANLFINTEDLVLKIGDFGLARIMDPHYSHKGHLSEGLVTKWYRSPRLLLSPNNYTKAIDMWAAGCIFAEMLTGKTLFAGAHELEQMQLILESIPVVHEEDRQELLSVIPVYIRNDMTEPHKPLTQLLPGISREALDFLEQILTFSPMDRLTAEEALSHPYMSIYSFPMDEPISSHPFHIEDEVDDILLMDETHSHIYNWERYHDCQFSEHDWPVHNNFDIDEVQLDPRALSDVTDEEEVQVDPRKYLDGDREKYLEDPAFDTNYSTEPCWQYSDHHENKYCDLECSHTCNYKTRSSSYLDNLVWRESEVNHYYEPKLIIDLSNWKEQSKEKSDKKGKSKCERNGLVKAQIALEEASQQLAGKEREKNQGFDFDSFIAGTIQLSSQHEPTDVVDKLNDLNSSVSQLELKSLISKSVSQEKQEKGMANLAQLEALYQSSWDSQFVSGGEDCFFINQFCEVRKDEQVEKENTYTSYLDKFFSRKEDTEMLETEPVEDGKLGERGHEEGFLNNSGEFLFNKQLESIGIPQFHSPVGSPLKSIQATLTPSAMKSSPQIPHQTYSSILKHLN
Chain of Casein kinase I isoform epsilon (Homo sapiens) (P49674 whole entry, looked up, canonical isoform): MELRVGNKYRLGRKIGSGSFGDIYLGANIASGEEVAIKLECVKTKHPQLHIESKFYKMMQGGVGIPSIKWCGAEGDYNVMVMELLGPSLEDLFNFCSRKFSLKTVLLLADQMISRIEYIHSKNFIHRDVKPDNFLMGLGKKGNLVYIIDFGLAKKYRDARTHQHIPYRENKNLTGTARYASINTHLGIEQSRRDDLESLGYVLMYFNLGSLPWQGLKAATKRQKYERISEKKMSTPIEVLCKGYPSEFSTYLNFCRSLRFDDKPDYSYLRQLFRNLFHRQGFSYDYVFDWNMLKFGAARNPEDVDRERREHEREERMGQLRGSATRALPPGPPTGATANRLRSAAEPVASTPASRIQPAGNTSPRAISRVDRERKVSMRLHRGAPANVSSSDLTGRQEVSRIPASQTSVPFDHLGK

CN(C)C(=O)Cn1cc(-c2nc(C3(c4ccc(-c5cnc(N)nc5)cc4)CC3)no2)cn1 [BI 0153]
inactive: residual activity [1] 100% | inhibition [2] 3.06% | residual activity [3] 100% | residual activity [4] 100% | residual activity [5] 86% | residual activity [6] 100% | residual activity [7] 62% | residual activity [8] 100% | residual activity [9] 70% | residual activity [10] 91% | residual activity [11] 82% | residual activity [12] 99% | residual activity [13] 100% | residual activity [14] 88% | residual activity [15] 94% | residual activity [16] 82% | residual activity [17] 93% | inhibition [18] 8.78%

CN(C)C(=O)Cn1cc(-c2nc([C@@](C)(c3ccc(-c4cnc(N)nc4)cc3)C3CC3)no2)cn1 [BI 665915]
inactive: residual activity [1] 97% | inhibition [2] 9.54% | residual activity [3] 88% | residual activity [4] 100% | residual activity [5] 100% | residual activity [6] 100% | residual activity [7] 94% | residual activity [8] 96% | residual activity [9] 87% | residual activity [10] 91% | residual activity [11] 73% | residual activity [12] 100% | residual activity [13] 93% | residual activity [14] 100% | residual activity [15] 87% | residual activity [16] 89% | residual activity [17] 86% | inhibition [18] 7.66%

— ChEMBL document CHEMBL4507276 (2021)
